From patent publication US20050261290A1, “Novel compounds of proline and morpholine derivatives” (priority 2004, published 2005)

Target: human 11b-hsd-1 (Homo sapiens, UniProt P28845)
Experiment: Inhibition constant Ki of human 11b-hsd-1 (3H-cortisone to 3H-cortisol conversion, HPLC)
Format: biochemical
Details: for inhibition at 0.1 µM: 0.1 μM compound; for Ki: apparent Ki, read-out: Ki app
Procedure: In each well, varying amounts of compounds are incubated with a fixed amount of 11b-hsd-1 (4 nM) and NADPH (500 μM) for 30 to 40 min at room temperature in the assay buffer. The enzyme concentration was determined by titration using reversible tight-binding inhibitors. […] The area of 3H-cortisol is calculated and plotted versus time to determine a linear velocity. […] Where vi, and vo are the rates of cortisol formation in the presence and in the absence of inhibitor, respectively, I is the inhibitor concentration and E is the 11 b-hsd-1 concentration in the assay buffer. […] NADPH, Glucose-6-Phosphate (G6P), and Glucose-6-Phosphate dehydrogenase was purchased from Sigma.

human 11b-hsd-1, sequence (P28845 whole entry): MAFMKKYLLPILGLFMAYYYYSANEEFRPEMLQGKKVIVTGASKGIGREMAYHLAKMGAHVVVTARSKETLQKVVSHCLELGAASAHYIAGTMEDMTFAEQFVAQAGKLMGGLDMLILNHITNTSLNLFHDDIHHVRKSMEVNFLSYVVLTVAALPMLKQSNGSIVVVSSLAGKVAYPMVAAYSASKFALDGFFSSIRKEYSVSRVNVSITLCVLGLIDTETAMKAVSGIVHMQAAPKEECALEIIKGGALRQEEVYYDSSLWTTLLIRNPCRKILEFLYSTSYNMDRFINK

Row | inhibition at 0.1 µM | Ki | SMILES
1 | 100% | 14 nM | CN(C(=O)C1CCCCN1Cc1ccc(Cl)cc1)C1CCCCC1 (centres unmarked) [Example 193]
2 | 86.2% | 25 nM | CN(C(=O)[C@H]1CSCN1Cc1ccc(Cl)cc1)C1CCCCC1 [Example 194]
3 | 100% | 13 nM | CC(C)CN1CSC[C@H]1C(=O)N(C)C1CCCCC1 [Example 195]
4 | 85.3% | 27 nM | CC(C)CN1CSC[C@@H]1C(=O)N(C)C1CCCCC1 [Example 196]
5 | 73.2% | 50 nM | CCC1CCCCN1C(=O)[C@H]1CCCN1Cc1ccc(Cl)cc1 (some centres unmarked) [Example 197]
6 | 100% | 2.5 nM | CCC1CCCCN1C(=O)[C@H]1CSCN1Cc1ccc(Cl)cc1 (some centres unmarked) [Example 198]
7 | 80.2% | 32 nM | CCC1CCCCN1C(=O)C1CCCCN1Cc1ccc(Cl)cc1 (centres unmarked) [Example 199]
8 | 91.6% | 36 nM | CCC1CCCCN1C(=O)[C@H]1CSCN1CC(C)C (some centres unmarked) [Example 200]
9 | 100% | 4.8 nM | O=C(NC12CC3CC(CC(C3)C1)C2)[C@H]1CSCN1Cc1ccc(Cl)cc1 [Example 202]
10 | 100% | 3.17 nM | CC(C)CN1CCC[C@@H]1C(=O)NC12CC3CC(CC(C3)C1)C2 [Example 205]
11 | 100% | 5.2 nM | CC(C)CN1CCCCC1C(=O)NC12CC3CC(CC(C3)C1)C2 (centres unmarked) [Example 206]
12 | 92.1% | 11 nM | CC(C)CN1C[C@H](O)C[C@H]1C(=O)NC12CC3CC(CC(C3)C1)C2 [Example 207]
13 | 100% | 1 nM | CC(C)CN1CSC[C@@H]1C(=O)NC12CC3CC(CC(C3)C1)C2 [Example 208]
14 | 80.2% | 32 nM | CC(C)CN1CC[C@H](O)[C@H]1C(=O)NC12CC3CC(CC(C3)C1)C2 [Example 211]
15 | 77.6% | 85 nM | O=C(NCc1ccccc1F)[C@H]1CCCN1Cc1ccccc1 [Example 212]
16 | 78% | 120 nM | O=C(NCc1ccc(Cl)cc1)[C@H]1CCCN1Cc1ccccc1 [Example 213]
17 | 82.7% | 59 nM | O=C(NCc1ccc(F)cc1)[C@H]1CCCN1Cc1ccccc1 [Example 214]
18 | 84.6% | 171 nM | CCCN1CCC[C@@H]1C(=O)NCc1ccccc1 [Example 217]
19 | 91.1% | 2500 nM | CCCN1CCC[C@@H]1C(=O)NCc1ccc(OC)cc1 [Example 218]
20 | 86.6% | 168 nM | CC(C)CN1CCC[C@@H]1C(=O)NCc1ccccn1 [Example 219]
21 | 96.7% | 5.1 nM | CC(C)CN1CCC[C@@H]1C(=O)NCc1ccccc1F [Example 220]
22 | 95.7% | 5.9 nM | CC(C)CN1CCC[C@@H]1C(=O)NCc1ccc(Cl)cc1 [Example 221]
23 | 100% | 6.9 nM | CC(C)CN1CCC[C@@H]1C(=O)NCc1ccc(F)cc1 [Example 222]
24 | 86.3% | 26 nM | CC(C)CN1CCC[C@@H]1C(=O)NCc1cccc(Cl)c1 [Example 223]
25 | 90% | 189 nM | O=C(NCc1ccccc1)[C@H]1CCCN1CC1CC1 [Example 224]
26 | 86.2% | 153 nM | O=C(NCc1ccc(F)cc1)[C@H]1CCCN1CC1CC1 [Example 225]

Row | inhibition at 0.1 µM | Ki | SMILES
27 | 82.2% | 22 nM | O=C(NCc1ccccc1)[C@H]1CCCN1CC1CCCC1 [Example 226]
28 | 80.3% | 36 nM | O=C(NCc1ccc(Cl)cc1)[C@H]1CCCN1CC1CCCC1 [Example 227]
29 | 89.3% | 54 nM | O=C(NCc1ccc(F)cc1)[C@H]1CCCN1CC1CCCC1 [Example 228]
30 | 73.7% | 48 nM | O=C(NCc1ccccc1F)[C@H]1CCCN1CCC(F)(F)F [Example 229]
31 | 71.5% | 47 nM | O=C(NCc1ccc(F)cc1)[C@H]1CCCN1Cc1ccccc1Cl [Example 232]
32 | 83.8% | 25 nM | O=C(NCc1ccc(F)cc1)[C@H]1CCCN1Cc1ccc(Cl)cc1 [Example 235]
33 | 76.8% | 66 nM | O=C(NCc1ccc(F)cc1F)[C@H]1CCCN1Cc1ccccc1 [Example 236]
34 | 100% | 10.3 nM | CC(C)CN1CCC[C@@H]1C(=O)NCc1cccc(F)c1 [Example 237]
35 | 88.4% | 16.3 nM | CC(C)CN1CCC[C@@H]1C(=O)NCc1ccc(F)cc1F [Example 238]
36 | 97.6% | 5.62 nM | CC(C)CN1CCC[C@@H]1C(=O)NCc1c(F)cccc1F [Example 239]
37 | 76.3% | 44 nM | O=C(NCc1cccc(F)c1)[C@H]1CCCN1CC1CCCC1 [Example 240]
38 | 81.4% | 32 nM | O=C(NCc1c(F)cccc1F)[C@H]1CCCN1CC1CCCC1 [Example 241]
39 | 78.9% | 44 nM | O=C(NCc1ccc(F)cc1F)[C@H]1CCCN1CCC(F)(F)F [Example 242]
40 | 84.9% | 15 nM | O=C(NCc1ccc(F)cc1F)[C@H]1CCCN1Cc1ccc(Cl)cc1 [Example 243]
41 | 87.1% | 18 nM | O=C(NCc1c(F)cccc1F)[C@H]1CCCN1Cc1ccc(Cl)cc1 [Example 244]
42 | 84.6% | 17 nM | COc1ccccc1CNC(=O)[C@H]1CCCN1Cc1ccccc1 [Example 245]
43 | 87.7% | 16 nM | Cc1ccccc1CNC(=O)[C@H]1CCCN1Cc1ccccc1 [Example 246]
44 | 88% | 14 nM | O=C(NCc1ccccc1Cl)[C@H]1CCCN1Cc1ccccc1 [Example 247]
45 | 100% | 1.3 nM | O=C(NC12CC3CC(CC(C3)C1)C2)[C@H]1CCCN1Cc1ccccc1 [Example 248]
46 | 100% | 1 nM | N#Cc1cccc(CN2CCC[C@@H]2C(=O)NC23CC4CC(CC(C4)C2)C3)c1 [Example 249]
47 | 100% | 5.9 nM | O=C(NC12CC3CC(CC(C3)C1)C2)[C@H]1CCCN1Cc1ccccn1 [Example 250]
48 | 83.5% | 47 nM | COc1ccccc1CNC(=O)[C@H]1CCCN1Cc1ccc(C#N)cc1 [Example 251]
49 | 82.6% | 52 nM | Cc1ccccc1CNC(=O)[C@H]1CCCN1Cc1ccc(C#N)cc1 [Example 252]
50 | 100% | 24 nM | N#Cc1ccc(CN2CCC[C@@H]2C(=O)NCc2ccccc2Cl)cc1 [Example 253]
51 | 100% | 1 nM | N#Cc1ccc(CN2CCC[C@@H]2C(=O)NC23CC4CC(CC(C4)C2)C3)cc1 [Example 254]
52 | 100% | 8.6 nM | COc1ccccc1CNC(=O)[C@H]1CCCN1CC(C)C [Example 255]

Row | inhibition at 0.1 µM | Ki | SMILES
53 | 100% | 7 nM | Cc1ccccc1CNC(=O)[C@H]1CCCN1CC(C)C [Example 256]
54 | 100% | 2.1 nM | CC(C)CN1CCC[C@@H]1C(=O)NCc1ccccc1Cl [Example 257]
55 | 90.1% | 24 nM | Cc1cccc(CNC(=O)[C@H]2CCCN2CC(C)C)c1 [Example 258]
56 | 100% | 11 nM | Cc1ccc(CNC(=O)[C@H]2CCCN2CC(C)C)cc1 [Example 259]
57 | 89.6% | 16 nM | COc1cccc(CNC(=O)[C@H]2CCCN2CC(C)C)c1 [Example 260]
58 | 100% | 25 nM | COc1ccccc1CNC(=O)[C@H]1CCCN1CC1CCCC1 [Example 261]
59 | 76% | 60 nM | COc1cccc(CNC(=O)[C@H]2CCCN2CC2CCCC2)c1 [Example 262]
60 | 77.5% | 62 nM | COc1ccccc1CNC(=O)[C@H]1CCCN1CCC(F)(F)F [Example 263]
61 | 86.5% | 10 nM | Cc1ccccc1CNC(=O)[C@H]1CCCN1CCC(F)(F)F [Example 264]
62 | 86% | 4.1 nM | O=C(NCc1ccccc1Cl)[C@H]1CCCN1CCC(F)(F)F [Example 265]
63 | 77.9% | 57 nM | COc1ccccc1CNC(=O)[C@H]1CCCN1Cc1cccc(Cl)c1 [Example 266]
64 | 100% | 12 nM | COc1ccccc1CNC(=O)[C@H]1CCCN1Cc1ccc(Cl)cc1 [Example 267]
65 | 100% | 10 nM | Cc1ccccc1CNC(=O)[C@H]1CCCN1Cc1ccc(Cl)cc1 [Example 268]
66 | 77.8% | 66 nM | COc1ccccc1CNC(=O)[C@H]1CCCN1CCc1ccccc1 [Example 269]
67 | 84.7% | 35 nM | Cc1ccccc1CNC(=O)[C@H]1CCCN1CCc1ccccc1 [Example 270]
68 | 83.8% | 26 nM | O=C(NCc1ccccc1Cl)[C@H]1CCCN1CCc1ccccc1 [Example 271]
69 | 71.7% | 1 nM | CN(Cc1ccccc1)C(=O)[C@H]1COCCN1Cc1ccccc1 [Example 272]
70 | 78.4% | 2.6 nM | O=C(NCc1ccc(F)cc1)[C@H]1COCCN1Cc1ccccc1 [Example 274]
71 | 100% | 1.5 nM | N#Cc1cccc(CN2CCOC[C@@H]2C(=O)NC2C3CC4CC(C3)CC2C4)c1 (some centres unmarked) [Example 275]
72 | 76% | 49.2 nM | CC(C)CN1CCOC[C@@H]1C(=O)NCc1ccccc1 [Example 278]
73 | 100% | 3 nM | O=C(NC1C2CC3CC(C2)CC1C3)[C@H]1COCCN1CC1CC1 (some centres unmarked) [Example 279]
74 | 81.6% | 49 nM | O=C(NCc1ccc(F)cc1F)[C@H]1COCCN1Cc1ccccc1 [Example 280]
75 | 84.9% | 48 nM | CC(C)CN1CCOC[C@@H]1C(=O)NCc1ccc(F)cc1F [Example 281]
76 | 100% | 2.34 nM | O=C(NC1CCCCC1)[C@H]1CCCN1Cc1ccccc1 [Example 282]
